Series [1] deals with HT1080, HeLa and DU145 cells. Description: Colony formation assay, non-PCa and AR-negative PCa cells. As to conditions: 10 μM, 7 days. Format: cell-based, human. The protocol: Cell Colony Assay: Cells were plated in 24-well plates at a density allowing 6-7 days of exponential growth before confluency. Medium and compound was replaced every 48 hours to minimize the effect of potential compound instability. After 7 days of incubation in the presence of compound, cells were fixed and stained with methylene blue, followed by extraction of the stain with 1% SDS and spectrophotometry at 650 nm. Each assay was run in triplicate and the difference between control and compound-treated wells was determined using Student's t-test.
This Example provides a description of the effect of the selected compounds on the growth of PCa cells. To test the toxicity of the identified AR inhibitors towards cells of different origins, we performed colony formation assays using a single dose of each compound (10 μM) on several PCa (LNCaP, C4-2, CWR22R and DU145) and two non-PCa (HT1080 and HeLa) cell lines (FIG. 2A). […] These compounds were not weaker inhibitors of AR transcriptional activity in CWR22R or C4-2 cells than compounds that inhibited growth of the cells.

Series [2] has as its system AR protein in CWR22R cells. Description: Western blot of AR protein levels. Format: cell-based, human. Particulars: 10 mM of hits for 36 hrs. The protocol: FIGS. 3A-3D depict data showing a that reduction of AR protein levels is associated with toxicity of the selected AR inhibitor hits to PCa cells. […] is a photographic representation of Western blotting of lysates from CWR22R cells treated with […] of the indicated hits for 36 hrs. […] GAPDH antibody was used to control for protein loading. FIG. 3B provides a graphical representation of data showing that, unlike parental CWR22R cells, a clone selected in the presence of c52 (c52R) is resistant to the effects of c52. AR protein expression in the c52R clone of CWR22R is not reduced by c52 treatment. Western blotting of parental and c52-resistant CWR22R cells with or without c52 treatment (10 μM for 36 hrs). FIG. 3C provides a graphical representation of data from analyzing cell viability by methylene blue staining 4 days after compound addition. Error bars—standard deviation between triplicates within experiment. FIG. 3D provides a graphical representation of data showing effects of the selected compounds on cell cycle distribution of CWR22R cells measured by propidium iodide staining of cellular DNA content by fluorescent activated cell sorting. Assay was done twice. Error bars—deviation between two measurements.
Western blot analysis. […] Total protein concentration was determined using Dc Protein Assay (BioRad, Hercules, Calif.). […]

The test system of another series is CWR22R tumors. Description: CWR22R xenograft model in nude mice. Format: in vivo, mouse. As to conditions: for CWR22R tumor growth: five daily i.v. injections, c52 at 18 mg/kg/day. From the text: (§1) FIGS. 6A and 6B provide data showing anti-tumor activity of the selected hits in mouse models of androgen-independent PCa. FIG. 6A provides a graphical representation of data obtained from i.p. injection of the listed compounds or DMSO vehicle into nude mice carrying subcutaneous (s.c.) C4-2 tumors. Six daily injections were given starting when tumors were around 100 mm3 in size. There were 4-5 mice per group with two tumors per mouse. Asterisks (*) and number signs (#) are placed under the means of measurement in the c6 and c11 groups respectively which are statistically different from the control group by ANOVA test (>99%) B. C52 (9 mg/kg or 18 mg/kg) or DMSO vehicle was injected into the tail vein of nude mice carrying s.c. CWR22R tumors. Five daily injections were given starting when tumors were around 40 mm3 in size. There were 10 mice per group with one tumor per mouse. Asterisks (*) are placed under the means of measurement which are statistically different from the control group by ANOVA test (>99%). Error bars in both FIGS. 6A and B—standard deviation between the size of tumors within a given treatment group.
(§2) Testing of the anti-tumor effect of compounds in mice was done according to an IACUC-approved protocol in 8 week old male athymic nude mice from Harlan (Indianapolis, Ind.). For the C4-2 xenograft model, 10^6 C4-2 cells were injected subcutaneously (s.c.) in 2 sites of each mouse in 50% matrigel (BD Biosciences, Bradford, Mass.) in PBS. Upon development of visible tumors, they were measured using digital caliper. Tumor volume was calculated according to the formula: […]. Mice were injected with compounds i.p. daily for 6 days starting on the day when at least one tumor per mouse reached 100 mm^3 in size. Five mice per group were used. For the CWR22R xenograft model, CWR22R cells were inoculated (10^5 cells per inoculum) in 50% matrigel, one site per mouse. Treatment was started when the tumor grew to a size of at least 25 mm^3. Compounds were diluted in captisol (CyDex, Lenexa, Kans.) and delivered intravenously (to reduce “first pass” liver effect) once a day for 5 days. Ten mice per group were used. Mice were monitored daily and tumors were measured every other day. Mice were euthanized according to institutional regulations when the size of tumor reached 1000 mm^3. Comparison of the tumor growth in control and treated mice was done using ANOVA test.
ARTIK compounds, c52 and c85, were also tested in the CWR22R model.

The next series relates to C4-2 tumors. Description: C4-2 xenograft model in nude mice. In kind it is in vivo, mouse. As to conditions: 6 daily i.p. injections, 100xIC50 dose.
From the text: as §1, §2
We evaluated the potential anti-tumor effect of the hits using C4-2 and CWR22R xenograft models of androgen-independent PCa in nude mice. Groups of C4-2 tumor-bearing mice (4-5 mice per group, each with two tumors) were given 6 daily i.p. injections of compound (100×IC50 dose) or DMSO vehicle.

Results on one compound are retold here after patent US8835447B2, “Method for treating androgen receptor positive cancers” (priority 2009, dated 2014).

Each structure is given as a SMILES string.

With `CCCn1c2ccccc2c2cc(C(C)=O)ccc21` [c52], the “growth of / toxicity towards non-PCa cells or AR-negative PCa cells (DU145)” value in series [1] is “no toxicity”. In series [2], the “AR protein level in CWR22R cells” value was “complete disappearance of AR protein”. For the same compound, in the series on CWR22R tumors (among 10 mice, 18 mg/kg/day), the “mice in which tumors completely disappeared” value is reported as 2 mice, the “mice in which tumors did not grow in size” value is 5 mice and the “mice in which tumors regressed” value stood at 1 mouse. The adverse side effects result with CWR22R tumors (c52 18 mg/kg/day i.v., 5 days) is “without any noticeable adverse side effects”. Besides, in the series with CWR22R tumors (18 mg/kg/day), the CWR22R tumor growth entry was “suppressed growth”. Further, in the series with CWR22R tumors (listed as C52, 18 mg/kg/day), the CWR22R tumor growth entry is on record as “effective”. The C4-2 tumor growth result with C4-2 tumors is “did not”. Also, the C4-2 tumor growth entry in the series on C4-2 tumors (listed as C52) was “did not show in vivo efficacy”.
